Laboratory results taken from patent US7985774B2, “Use of 3,5-seco-4-nor-cholestane derivatives for obtaining a cytoprotective drug” (Trophos, priority 2006, dated 2011).

Tests used:
[1] = system: C57BL6 mice; test: In vivo model of myocardium infarction (coronary occlusion-reperfusion)
Procedure: The purpose of this experiment is to study in vivo the cardioprotective properties of the compounds, 3,5-seco-4-nor-cholestan-5-one oxime-3-ol and 3,5-seco-4-nor-cholestan-5-one oxime-3-N,N-dimethylglycine ester, in a murine coronary occlusion-reperfusion model.
The compounds to be tested are administered intravenously in mice, 5 minutes before reperfusion of the myocardium ischemiated beforehand. As controls, carriers of the compounds beta-cyclodextrin (hereafter called βCD) and water, respectively, are administered under the same conditions as for the compounds.
In order to determine the effect of the tested compounds, the size of the infarction is measured after 24 hour reperfusion.
6-8 week old male C57BL6 mice are anaesthetized with sodium pentobarbital (50 mg/kg i.p.) and are ventilated after intubation with an O2/CO2 (95%/5%) mixture throughout the experiment. The surface electrocardiogram (ECG) is recorded and viewed on an oscilloscope all along surgery. Under strict asepsis conditions, the jugular vein is catheterized for intravenous administration of the compounds. A left lateral thoracotomy is performed and after pericardiotomy, a major branch of the left coronary artery is localized in the latero-posterior region of the left ventricle. A prolene no. 8 suture is positioned around this artery so as to form a mobile loop for making a temporary coronary occlusion.
All the mice were subject to a 30 minute temporary coronary occlusion. Ischemia of the myocardium region is confirmed by cyanosis of the myocardium surface and a deviation of the ST segment of the electrocardiogram.
Each of the compounds (treated group, n=10) or its solvent (control group, n=10) was administered as a bolus intravenously, 5 min before lifting the 30 minutes of coronary occlusion.
3,5-seco-4-nor-cholestan-5-one oxime-3-ol, dissolved beforehand to a final concentration of 0.46 mg/ml in a 30% βCD solution in phosphate buffer prepared by saturation followed by centrifugation, is administered at a dosage of 1 mg/kg.
3,5-seco-4-nor-cholestan-5-one oxime-3-N,N-dimethylglycine ester, dissolved beforehand to a final concentration of 1.56 mg/ml in sterile water by stirring and sonication, is administered at a dosage of 3.9 mg/kg.
The same volume of carrier is administered in the corresponding control groups.
Twenty four hours after the end of coronary occlusion, the mice are re-anaesthetized with sodium pentobarbital (50 mg/kg i.p.) and heparin is administered intravenously (Choay© heparin 1,000 IU/kg). A ligature of the coronary artery is achieved at the same location having been subject to the first occlusion 24 h previously. The mice are then euthanized with a lethal saturated dose of potassium chloride and their heart is rapidly excised and then mounted through the aorta artery on a retrograde perfusion system of the Langendorff type.
A 5% Evans blue solution is perfused retrogradely so that the healthy myocardium is colored in blue; the area made ischemic during the coronary occlusion, or <<area of risk AR>> remaining uncolored by default.
The left ventricle is then cut out into 5 slices with equal thicknesses (1 mm) by means of a slicer specially designed for hearts of mice (Les Isolants de Paris, Palaiseau), which are then weighed.
These slices are incubated in a 1% triphenyltetrazolium chloride solution (TTC, Sigma, Poole, UK) at pH 7.4 for 20 min at 37° C. and then set in 4% formol. TTC has the property of coloring the non-infarcted myocardium in red, and so showing the infarcted areas in white. Each heart slice is placed under a stereo microscope for taking a high definition digital photograph.
Quantification of infarction and the area of risk is carried out by planimetry (Scion Image, Scion, Frederick Md., USA) and referred to the weight of each slice.
The area of risk (non-blue area) is expressed as a percentage of the weight of the left ventricle. The infarction sizes are expressed as a percentage of the weight of the area of risk. […]

[2] = system: CD1 mice; test: Acute hepatotoxicity: lethal intoxication by the Jo2 antibody (survival); assay type: in vivo; details: for Survival rate: 24 hrs
Procedure: Male adult CD1 mice from the breeder “Elevage Janvier”, (Le Genest-Saint-Isle, France) were used. The animals were identified individually and had free access to water and food.
A stock solution of monoclonal hamster anti-mouse CD95 (Fas) antibody, called Jo2, from Pharmingen (BD Biosciences, ref. 554254 batch 32699) is prepared at a concentration of 1 mg/mL in water. The dilutions used are made in 0.9% sodium chloride in water.
The desired amount of 3,5-seco-4-nor-cholestan-5-one oxime-3-ol is weighed and milled into a fine powder, and then mixed with Cremophore EL (Sigma C5135) and absolute ethanol (Carlo Erba RPE 41571) (5% and 10% of the final volume, respectively). After complete dissolution, 0.9% sodium chloride in water is added extemporaneously (85% of the final volume).
In this experiment, the effect of 3,5-seco-4-nor-cholestan-5-one oxime-3-ol on the survival of animals after administering a lethal dose of the Jo2 antibody is evaluated.
The Jo2 antibody is administered by intraperitoneal injection at a dose of 200 ou 250 μg/kg in a volume of 5 mL/kg of body weight.
3,5-seco-4-nor-cholestan-5-one oxime-3-ol is tested at 10 and 30 mg/kg, as a pretreatment, 1 hr before administering Jo2 or as a post-treatment, 1 hr after administering Jo2.
A control is obtained with animals receiving pretreatment by intraperitoneal administration, 1 hr before or 1 hr after administering the antibody, of an identical volume of solution having been used for preparing the compound to be tested, without the compound.

[3] = 1 mg/kg i.v. bolus in βCD 5 min before reperfusion, 30 min occlusion, 24 h reperfusion, mean±SEM

CC(C)CCC[C@@H](C)[C@H]1CC[C@H]2[C@@H]3CC/C(=N\O)[C@](C)(CCCO)[C@H]3CC[C@]12C [3,5-seco-4-nor-cholestan-5-one oxime-3-ol]
Area of risk (percentage of the weight of the left ventricle) [1, 3]: 9 +/− 4%
Infarction size (percentage of the weight of the area of risk) [1, 3]: 21 +/− 7%
Infarction size reduction ([1]; 1 mg/kg i.v., versus carrier (βCD)): 36.4%
Survival rate ([2]; Experience 5: Jo2 200 μg/kg, 10 mg/kg post-treatment, control 30): 60%
Mortality (24 hrs)/total number of animals ([2]; Experience 5: Jo2 200 μg/kg, 10 mg/kg post-treatment, control 14/20): 8/20
Survival rate ([2]; Experience 6: Jo2 200 μg/kg, 30 mg/kg post-treatment, control 20): 60%
Mortality (24 hrs)/total number of animals ([2]; Experience 6: Jo2 200 μg/kg, 30 mg/kg post-treatment, control 16/20): 8/20
Survival rate ([2]; Experiment 1: Jo2 250 μg/kg, 10 mg/kg pretreatment, control 25): 65%
Mortality (24 hrs)/total number of animals ([2]; Experiment 1: Jo2 250 μg/kg, 10 mg/kg pretreatment, control 15/20): 7/20
Survival rate ([2]; Experiment 2: Jo2 250 μg/kg, 30 mg/kg pretreatment, control 10): 90%
Mortality (24 hrs)/total number of animals ([2]; Experiment 2: Jo2 250 μg/kg, 30 mg/kg pretreatment, control 18/20): 2/20
Survival rate ([2]; Experiment 3: Jo2 250 μg/kg, 10 mg/kg post-treatment, control 10): 15%
Mortality (24 hrs)/total number of animals ([2]; Experiment 3: Jo2 250 μg/kg, 10 mg/kg post-treatment, control 18/20): 17/20
Survival rate ([2]; Experiment 4: Jo2 250 μg/kg, 30 mg/kg post-treatment, control 5): 35%
Mortality (24 hrs)/total number of animals ([2]; Experiment 4: Jo2 250 μg/kg, 30 mg/kg post-treatment, control 19/20): 13/20
